Experimental data: patent US12419853B2, “Nanoparticle pharmaceutical delivery system” (ADEIRA PHARMA, LLC, priority 2019, dated 2025)

What was measured:
[1] = tested on: OVCAR3 human ovarian carcinoma xenograft; assay: OVCAR3 xenograft efficacy; format: in vivo; settings: CB.17 SCID mice, 4 mg/kg weekly, four doses
Procedure: In this three-arm study, a vehicle control was included, which consisted of the nanoparticle emulsion with no cisplatin. A positive control arm included a conventional formulation of free cisplatin dosed at 4 mg/kg. The test arm included the nanoparticle emulsion at a dose of 4 mg/kg.
60 female CB.17 SCID mice, aged 8 to 12 weeks, were implanted with 1 mm^3 OVCAR3 tumor fragments in the flank. When the tumors had grown to approximately 100-150 mm^3, pairs were matched by tumor size and treatment began. Dosing was carried out weekly on all three arms, for a total of four doses. Body weight and tumor size for each of the mice was taken every other day. No excess toxicity was noted, as evidenced by body weight and observed behavior of the mice. […] The negative control (labeled ‘vehicle’ in FIG. 6) served as a reference for tumor growth in the absence of cisplatin.

[2] = Excerpt: In a fifth alternative example, formulation of a nanoparticle emulsion was attempted as described in example 1, except that no triacetin was used, just safflower oil as the lipid component. […] The maximum solubility was approximately 1000× less than in triacetin.

| maximum solubility in safflower oil, fold less than in triacetin [2] | Structure (SMILES) | effect on tumor growth [1] |
| --- | --- | --- |
|  | N.N.[Cl][Pt][Cl] [free cisplatin, cisplatin] | significant reduction in tumor growth |
| approximately 1000 × | CC(=O)O[C@H]1C(=O)[C@@]2(C)[C@H]([C@H](OC(=O)c3ccccc3)[C@]3(O)C[C@H](OC(=O)[C@H](O)[C@@H](NC(=O)c4ccccc4)c4ccccc4)C(C)=C1C3(C)C)[C@]1(OC(C)=O)CO[C@@H]1C[C@@H]2O [paclitaxel] |  |
